In patent US12522623B2, “Small molecule STAT protein degraders” (THE REGENTS OF THE UNIVERSITY OF MICHIGAN, priority 2020, dated 2026) one finds DC50 and IC50 data, which are given here for 1 compound.

SMILES strings stand for the structures.

Holding throughout (assay type): cell-based
The target of one experiment is T1, STAT3 (Homo sapiens, UniProt P40763).
T1 construct: endogenous in cells; host or cells: MOLM-16 (acute leukemia cells)
Put plainly: Fluorescent immunoblotting of STAT3 protein in MOLM-16 cells (estimated DC50). The conditions noted are these: MOLM-16, 4 h. The method, then: (§1) In vitro cultured cells or xenograft tumors were lysed 1×Cell Lysis Buffer (Cell Signaling Technology, #9803), resolved by SDS-PAGE NuPAGE gel (Thermo Fisher Scientific), and transferred to a PVDF membrane (Bio Rad). For chemiluminescence immunoblotting, membranes were blocked for 1 h using 5% Blotting-Grade Blocker (#1706404, Bio Rad) in 1×Tris-buffered saline with Tween 20 (TBST, Pierce). Antibodies used were: rabbit mAbs for STAT3 (Cell Signaling Technology, #4368, #12640) and p-STAT3 (Y705) (Cell Signaling Technology, #9245, #52075). HRP conjugated goat anti-rabbit IgG (H+L) (#A27036) secondary antibodies was from Thermo Fisher Scientific. GAPDH (Santa Cruz Technology, sc-47724HRP) and actin (Santa Cruz Technology, sc-8432HRP, sc-47778HRP) were loading controls. For fluorescent immunoblotting, membranes were blocked using Odyssey TBS Blocker Buffer (LI-COR). IRDye 680RD and 800CW Dye-labeled secondary antibodies (LI-COR) were used. The washed membranes were scanned using Odyssey CLx imager (LI-COR). The intensity of Western blot signaling was quantitated using the Odyssey software or Image Studio V5.2 (LI-COR).

The next experiment concerns the target T2, STAT1 (Homo sapiens, UniProt P42224).
T2 construct: endogenous in cells; host or cells: MOLM-16 (acute leukemia cells)
T2 sequence (P42224 1-750): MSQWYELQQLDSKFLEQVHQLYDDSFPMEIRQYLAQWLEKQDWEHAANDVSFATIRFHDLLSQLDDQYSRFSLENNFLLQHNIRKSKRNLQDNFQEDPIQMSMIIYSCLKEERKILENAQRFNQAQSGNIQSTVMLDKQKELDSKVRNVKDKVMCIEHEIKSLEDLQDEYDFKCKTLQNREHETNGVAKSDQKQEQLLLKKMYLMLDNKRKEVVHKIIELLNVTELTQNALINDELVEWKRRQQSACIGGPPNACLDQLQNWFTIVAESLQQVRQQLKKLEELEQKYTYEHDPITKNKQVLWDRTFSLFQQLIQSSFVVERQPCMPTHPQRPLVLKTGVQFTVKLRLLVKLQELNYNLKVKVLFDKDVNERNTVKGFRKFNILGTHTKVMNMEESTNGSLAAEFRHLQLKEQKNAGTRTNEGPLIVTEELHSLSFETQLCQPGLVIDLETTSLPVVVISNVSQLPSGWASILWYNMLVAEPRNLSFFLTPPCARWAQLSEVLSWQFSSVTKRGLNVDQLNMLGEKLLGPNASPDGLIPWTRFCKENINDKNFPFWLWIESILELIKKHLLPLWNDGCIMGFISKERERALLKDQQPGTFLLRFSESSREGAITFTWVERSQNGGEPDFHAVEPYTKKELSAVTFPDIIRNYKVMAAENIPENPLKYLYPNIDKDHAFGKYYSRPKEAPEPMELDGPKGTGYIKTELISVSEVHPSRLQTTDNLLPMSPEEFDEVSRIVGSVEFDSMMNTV
Put plainly: Fluorescent immunoblotting of STAT1 protein in MOLM-16 cells (estimated DC50). Conditions: MOLM-16, 4 h. How it is done: as §1

The test system of a further experiment is MOLM-16 cells. Put plainly: Cell growth inhibition, 4-day proliferation assay (CellTiter-Glo). The conditions noted are these: MOLM16, 96 h; MOLM-16, 4 days. The method, then:
The effect of representative Compounds of the Disclosure on cell viability was determined in a 4-day proliferation assay. Cells were maintained in the appropriate culture medium at 37° C. and an atmosphere of 5% CO2. All the cell lines were used within three months of thawing fresh vials. Cells were seeded in 384-well white plates (Corning Costar) at a density of 2,000 cells/well in 25 μl of culture medium. Compounds were serially diluted in the appropriate medium, and 25 μl of the diluted compounds were added to the cells. After the addition of compounds, the cells were incubated at 37° C. in an atmosphere of 5% CO2 for 4 days. Cell viability was determined using the CellTiter-Glo® Luminescent Cell Viability Assay Kit (Promega, Madison, WI) according to the manufacturers' instructions. Essentially, 50 μl of CellTiter-Glo® Reagent was added to each well, and then the plates were incubated at room temperature for 20 minutes. The luminescent signal was measured using a Tecan multimode microplate reader (Tecan, Morrisville, NC). The readings were normalized to the DMSO-treated cells and the IC50 was calculated by nonlinear regression (four parameters sigmoid fitted with variable slope, least squares fit, and no constraint) analysis using the GraphPad Prism software.
(ATP-based viability assays read luminescence as a measure of living cells.)

T1 sequence (P40763 whole entry): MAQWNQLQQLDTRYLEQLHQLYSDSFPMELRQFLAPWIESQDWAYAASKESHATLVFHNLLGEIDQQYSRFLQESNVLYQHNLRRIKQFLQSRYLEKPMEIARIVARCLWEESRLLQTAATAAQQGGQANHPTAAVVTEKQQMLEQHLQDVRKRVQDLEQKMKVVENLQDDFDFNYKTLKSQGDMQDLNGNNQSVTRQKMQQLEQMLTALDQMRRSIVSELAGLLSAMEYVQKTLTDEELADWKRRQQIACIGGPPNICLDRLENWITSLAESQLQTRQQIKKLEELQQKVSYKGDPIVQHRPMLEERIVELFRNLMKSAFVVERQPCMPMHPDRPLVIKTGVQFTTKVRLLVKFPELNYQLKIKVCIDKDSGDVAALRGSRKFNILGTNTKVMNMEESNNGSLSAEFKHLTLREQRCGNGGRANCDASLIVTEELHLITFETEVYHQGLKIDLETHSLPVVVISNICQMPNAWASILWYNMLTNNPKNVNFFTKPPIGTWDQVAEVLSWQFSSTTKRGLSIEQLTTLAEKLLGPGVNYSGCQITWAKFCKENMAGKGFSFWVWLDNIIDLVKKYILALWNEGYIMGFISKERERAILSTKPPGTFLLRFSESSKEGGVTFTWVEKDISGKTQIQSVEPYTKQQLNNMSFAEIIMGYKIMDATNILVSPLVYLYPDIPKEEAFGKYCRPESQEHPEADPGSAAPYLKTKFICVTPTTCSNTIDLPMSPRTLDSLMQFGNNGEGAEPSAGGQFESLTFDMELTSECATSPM

As to `NC(=O)CC[C@H](NC(=O)[C@@H]1CC[C@@H]2CCN(C(=O)CCCCCC#Cc3cccc4c3CN(C3CCC(=O)NC3=O)C4=O)C[C@H](NC(=O)c3cc4cc(C(F)(F)P(=O)(O)O)ccc4s3)C(=O)N21)c1ncc(-c2ccccc2)s1` (stereo partly drawn) [Cpd. No. 2, ((2-(((5S,8S,10aR)-8-(((S)-4-amino-4-oxo-1-(5-phenylthiazol-2-yl)butyl)carbamoyl)-3-(8-(2-(2,6-dioxopiperidin-3-yl)-1-oxoisoindolin-4-yl)oct-7-ynoyl)-6-oxodecahydropyrrolo[1,2-a][1,5]diazocin-5-yl)carbamoyl)benzo[b]thiophen-5-yl)difluoromethyl)phosphonic acid], the results for the DC50 at STAT3 and at STAT1 were 100 nM and above 1000 nM, respectively. It took 49 nM to reach half-maximal inhibition in the experiment on MOLM-16 cells (IC50).

As usually defined, the IC50 is the point on the concentration scale where inhibition reaches its midpoint. Higher therefore signals weaker potency in that assay.
